Experimental data reported in PMC8617627, “Novel DYRK1A Inhibitor Rescues Learning and Memory Deficits in a Mouse Model of Down Syndrome” (Pharmaceuticals, 2021).
Where two headings read alike, the source gives them in different places.

Key:
Assay in all cases: Kinase profile (33P ATP filter binding)
Assay type in all cases: biochemical
[1] = target: PKA (Homo sapiens, UniProt P17612); conditions: read-out: Remaining protein kinase activity
[2] = target: PAK4 (Homo sapiens, UniProt O96013); conditions: read-out: Remaining protein kinase activity
PAK4, sequence (O96013 whole entry): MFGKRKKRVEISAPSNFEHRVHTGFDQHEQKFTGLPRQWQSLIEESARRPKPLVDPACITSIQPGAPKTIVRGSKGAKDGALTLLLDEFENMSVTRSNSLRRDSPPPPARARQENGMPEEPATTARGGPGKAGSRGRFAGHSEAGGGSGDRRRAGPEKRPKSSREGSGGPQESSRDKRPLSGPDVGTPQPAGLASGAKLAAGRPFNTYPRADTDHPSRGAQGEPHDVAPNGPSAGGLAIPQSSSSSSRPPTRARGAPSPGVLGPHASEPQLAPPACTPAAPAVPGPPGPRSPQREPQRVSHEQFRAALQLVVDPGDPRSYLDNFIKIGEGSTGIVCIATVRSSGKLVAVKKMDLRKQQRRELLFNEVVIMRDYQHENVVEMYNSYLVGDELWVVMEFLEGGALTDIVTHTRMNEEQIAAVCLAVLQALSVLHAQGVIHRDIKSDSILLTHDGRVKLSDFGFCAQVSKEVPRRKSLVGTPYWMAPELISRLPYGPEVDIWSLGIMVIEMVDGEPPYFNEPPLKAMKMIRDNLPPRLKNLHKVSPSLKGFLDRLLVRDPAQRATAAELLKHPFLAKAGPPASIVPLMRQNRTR

[3] = target: T1, MAP4K3 (Homo sapiens, UniProt Q8IVH8)
T1 sequence (Q8IVH8 1-894): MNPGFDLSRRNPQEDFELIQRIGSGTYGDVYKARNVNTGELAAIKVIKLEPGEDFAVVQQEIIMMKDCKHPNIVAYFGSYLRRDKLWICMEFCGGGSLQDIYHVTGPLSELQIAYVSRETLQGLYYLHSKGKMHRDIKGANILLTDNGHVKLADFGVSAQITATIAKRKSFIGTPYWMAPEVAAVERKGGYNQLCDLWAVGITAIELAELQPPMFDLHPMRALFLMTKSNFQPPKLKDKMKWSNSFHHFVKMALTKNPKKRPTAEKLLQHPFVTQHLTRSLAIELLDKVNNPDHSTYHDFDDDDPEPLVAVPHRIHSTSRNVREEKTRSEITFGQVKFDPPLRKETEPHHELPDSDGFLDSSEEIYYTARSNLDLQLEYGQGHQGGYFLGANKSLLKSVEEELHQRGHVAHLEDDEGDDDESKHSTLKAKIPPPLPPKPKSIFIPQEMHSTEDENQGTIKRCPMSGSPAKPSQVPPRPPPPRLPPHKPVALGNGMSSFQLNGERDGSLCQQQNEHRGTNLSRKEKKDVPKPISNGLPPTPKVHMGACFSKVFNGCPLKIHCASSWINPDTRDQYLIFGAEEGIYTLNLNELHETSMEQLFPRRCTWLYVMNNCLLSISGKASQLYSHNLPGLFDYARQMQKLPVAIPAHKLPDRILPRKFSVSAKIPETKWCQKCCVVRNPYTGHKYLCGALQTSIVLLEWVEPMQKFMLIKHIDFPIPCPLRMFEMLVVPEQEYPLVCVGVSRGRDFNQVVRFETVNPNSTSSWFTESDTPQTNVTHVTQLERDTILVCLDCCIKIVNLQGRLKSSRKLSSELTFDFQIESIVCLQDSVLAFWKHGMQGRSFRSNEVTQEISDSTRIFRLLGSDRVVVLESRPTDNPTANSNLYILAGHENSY

[4] = target: T2, EPH-B3 (Homo sapiens, UniProt P54753); conditions: read-out: Remaining protein kinase activity
T2 sequence (P54753 34-998): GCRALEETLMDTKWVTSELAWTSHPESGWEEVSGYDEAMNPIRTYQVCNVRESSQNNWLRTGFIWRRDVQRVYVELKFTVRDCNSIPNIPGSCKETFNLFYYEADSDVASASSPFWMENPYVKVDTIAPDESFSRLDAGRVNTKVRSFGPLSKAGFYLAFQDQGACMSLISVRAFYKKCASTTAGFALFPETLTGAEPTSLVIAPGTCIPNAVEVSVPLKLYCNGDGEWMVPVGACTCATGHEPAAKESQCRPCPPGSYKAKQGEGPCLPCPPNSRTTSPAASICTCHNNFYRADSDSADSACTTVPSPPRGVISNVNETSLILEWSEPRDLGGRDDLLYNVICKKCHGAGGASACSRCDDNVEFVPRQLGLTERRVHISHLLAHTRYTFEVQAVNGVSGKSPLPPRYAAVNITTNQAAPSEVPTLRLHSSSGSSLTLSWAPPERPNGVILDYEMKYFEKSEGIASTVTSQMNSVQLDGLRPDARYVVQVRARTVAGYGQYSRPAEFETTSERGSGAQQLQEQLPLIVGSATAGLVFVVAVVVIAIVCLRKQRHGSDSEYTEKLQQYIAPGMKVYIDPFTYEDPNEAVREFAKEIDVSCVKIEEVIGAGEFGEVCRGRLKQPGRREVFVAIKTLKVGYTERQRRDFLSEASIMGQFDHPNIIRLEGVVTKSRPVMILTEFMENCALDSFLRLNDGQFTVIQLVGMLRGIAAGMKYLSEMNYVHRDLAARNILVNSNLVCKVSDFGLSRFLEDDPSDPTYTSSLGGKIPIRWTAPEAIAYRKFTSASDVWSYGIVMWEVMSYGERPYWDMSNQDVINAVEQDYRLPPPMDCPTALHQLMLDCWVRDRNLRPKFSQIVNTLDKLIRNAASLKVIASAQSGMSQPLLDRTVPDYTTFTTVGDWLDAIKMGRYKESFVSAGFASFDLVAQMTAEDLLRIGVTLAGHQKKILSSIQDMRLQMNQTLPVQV

[5] = target: BRK (Homo sapiens, UniProt Q13882); conditions: read-out: Remaining protein kinase activity
BRK, sequence (Q13882 whole entry): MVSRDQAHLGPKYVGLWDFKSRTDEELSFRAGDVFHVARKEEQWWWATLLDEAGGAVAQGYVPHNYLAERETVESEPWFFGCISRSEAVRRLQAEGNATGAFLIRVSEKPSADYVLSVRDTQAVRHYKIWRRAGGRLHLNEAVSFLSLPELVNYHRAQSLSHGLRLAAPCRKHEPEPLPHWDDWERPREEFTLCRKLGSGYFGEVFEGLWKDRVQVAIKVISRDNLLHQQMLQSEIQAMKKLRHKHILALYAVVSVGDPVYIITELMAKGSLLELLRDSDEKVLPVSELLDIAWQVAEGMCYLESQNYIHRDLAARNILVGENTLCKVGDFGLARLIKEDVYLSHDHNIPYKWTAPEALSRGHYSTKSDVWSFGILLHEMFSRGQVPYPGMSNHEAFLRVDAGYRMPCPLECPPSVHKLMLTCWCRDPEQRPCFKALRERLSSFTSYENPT

[6] = target: MARK2 (Homo sapiens, UniProt Q7KZI7); conditions: read-out: Remaining protein kinase activity
MARK2, sequence (Q7KZI7 whole entry): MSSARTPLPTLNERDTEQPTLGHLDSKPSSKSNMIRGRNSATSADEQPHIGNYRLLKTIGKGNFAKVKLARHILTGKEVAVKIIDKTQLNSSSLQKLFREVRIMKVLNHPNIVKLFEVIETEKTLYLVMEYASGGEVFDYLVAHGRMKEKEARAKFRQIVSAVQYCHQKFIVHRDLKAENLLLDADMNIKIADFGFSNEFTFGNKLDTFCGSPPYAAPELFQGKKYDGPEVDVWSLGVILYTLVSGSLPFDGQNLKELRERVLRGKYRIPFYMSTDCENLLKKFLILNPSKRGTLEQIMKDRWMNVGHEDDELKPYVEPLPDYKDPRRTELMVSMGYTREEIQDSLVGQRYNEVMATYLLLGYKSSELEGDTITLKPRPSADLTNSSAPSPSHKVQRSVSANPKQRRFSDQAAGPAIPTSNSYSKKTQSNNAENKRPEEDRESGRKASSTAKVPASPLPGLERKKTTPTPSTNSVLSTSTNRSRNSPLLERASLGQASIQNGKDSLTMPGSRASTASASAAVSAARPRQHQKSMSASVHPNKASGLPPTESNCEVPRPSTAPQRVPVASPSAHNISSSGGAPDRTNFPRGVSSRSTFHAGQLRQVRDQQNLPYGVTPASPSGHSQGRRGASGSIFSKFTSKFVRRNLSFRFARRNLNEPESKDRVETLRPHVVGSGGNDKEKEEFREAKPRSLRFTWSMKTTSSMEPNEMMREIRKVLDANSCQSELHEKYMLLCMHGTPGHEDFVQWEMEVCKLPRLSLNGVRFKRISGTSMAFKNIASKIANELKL

[7] = target: PKCa (Homo sapiens, UniProt P17252); conditions: read-out: Remaining protein kinase activity
[8] = target: MAP4K5 (Homo sapiens, UniProt Q9Y4K4); conditions: read-out: Remaining protein kinase activity
MAP4K5, sequence (Q9Y4K4 whole entry): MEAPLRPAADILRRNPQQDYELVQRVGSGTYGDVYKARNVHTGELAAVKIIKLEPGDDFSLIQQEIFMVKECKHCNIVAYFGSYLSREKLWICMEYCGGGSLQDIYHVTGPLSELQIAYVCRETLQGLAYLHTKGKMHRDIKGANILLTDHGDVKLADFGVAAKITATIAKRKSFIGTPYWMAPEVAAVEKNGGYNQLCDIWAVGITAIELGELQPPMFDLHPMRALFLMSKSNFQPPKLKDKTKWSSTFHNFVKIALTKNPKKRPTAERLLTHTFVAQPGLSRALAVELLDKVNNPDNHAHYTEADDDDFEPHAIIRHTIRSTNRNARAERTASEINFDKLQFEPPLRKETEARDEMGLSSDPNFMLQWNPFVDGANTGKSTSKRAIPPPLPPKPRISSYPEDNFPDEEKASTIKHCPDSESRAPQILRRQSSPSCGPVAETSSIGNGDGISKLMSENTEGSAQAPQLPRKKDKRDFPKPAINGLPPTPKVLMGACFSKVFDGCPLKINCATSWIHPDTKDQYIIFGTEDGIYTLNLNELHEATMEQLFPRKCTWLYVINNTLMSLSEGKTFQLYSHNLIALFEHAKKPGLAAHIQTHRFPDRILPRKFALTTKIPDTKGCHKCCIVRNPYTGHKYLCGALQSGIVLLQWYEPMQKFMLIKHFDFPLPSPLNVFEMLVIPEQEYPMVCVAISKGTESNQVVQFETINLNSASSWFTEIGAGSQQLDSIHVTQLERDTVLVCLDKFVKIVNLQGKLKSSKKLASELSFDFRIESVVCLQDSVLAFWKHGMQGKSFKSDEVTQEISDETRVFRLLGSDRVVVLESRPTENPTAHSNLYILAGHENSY

With `COc1ccc2sc(-c3cncc(NC(C)=O)c3)nc2c1` [PST-001, N-(5-(5-Methoxybenzo[d]thiazol-2-yl)pyridin-3-yl)acetamide] as the compound, how does the remaining activity at 1 µM [1] read?
The remaining activity at 1 µM was 88%.

And the remaining activity at 100 µM [1]?
Its remaining activity at 100 µM is 88%.

What about the remaining activity at 1 µM [2] of the same compound?
The remaining activity at 1 µM was 116%.

And the remaining activity at 100 µM [2]?
Its remaining activity at 100 µM is 98%.

What about the “Remaining protein kinase activity” value ([3]; 1 μM) of the same compound?
The value was 111%.

What about the “Remaining protein kinase activity” value ([3]; 100 μM) of the same compound?
Its value is 94%.

What about the remaining activity at 1 µM [4] of the same compound?
The remaining activity at 1 µM was 147%.

And the remaining activity at 100 µM [4]?
The remaining activity at 100 µM was 130%.

And the remaining activity at 1 µM [5]?
The remaining activity at 1 µM was 106%.

And the remaining activity at 100 µM [5]?
Its remaining activity at 100 µM is 106%.

What about the remaining activity at 1 µM [6] of the same compound?
The remaining activity at 1 µM was 116%.

What about the remaining activity at 100 µM [6] of the same compound?
Its remaining activity at 100 µM is 106%.

What about the remaining activity at 1 µM [7] of the same compound?
Its remaining activity at 1 µM is 119%.

And the remaining activity at 100 µM [7]?
Its remaining activity at 100 µM is 85%.

And the remaining activity at 1 µM [8]?
Its remaining activity at 1 µM is 82%.

And the remaining activity at 100 µM [8]?
Its remaining activity at 100 µM is 92%.

What does the source list for `COc1ccc2sc(-c3cncc(N)c3)nc2c1` [compound 1, 5-(5-Methoxybenzo[d]thiazol-2-yl)pyridin-3-amine]?
remaining activity at 1 µM ([1]; PKA, 1 μM): 98%; remaining activity at 100 µM ([1]; PKA, 100 μM): 74%; remaining activity at 1 µM ([2]; PAK4, 1 μM): 109%; remaining activity at 100 µM ([2]; PAK4, 100 μM): 54%; Remaining protein kinase activity ([3]; 1 μM): 98%; Remaining protein kinase activity ([3]; 100 μM): 22%; remaining activity at 1 µM ([4]; EPH-B3, 1 μM): 130%; remaining activity at 100 µM ([4]; EPH-B3, 100 μM): 71%; remaining activity at 1 µM ([5]; BRK, 1 μM): 94%; remaining activity at 100 µM ([5]; BRK, 100 μM): 50%; remaining activity at 1 µM ([6]; MARK2, 1 μM): 112%; remaining activity at 100 µM ([6]; MARK2, 100 μM): 62%; remaining activity at 1 µM ([7]; PKCa, 1 μM): 110%; remaining activity at 100 µM ([7]; PKCa, 100 μM): 63%; remaining activity at 1 µM ([8]; MAP4K5, 1 μM): 106%; remaining activity at 100 µM ([8]; MAP4K5, 100 μM): 61%
